From ChEMBL document CHEMBL4651402, “Screening of ~5500 FDA-approved drugs and clinical candidates for anti-SARS-CoV-2 activity” (2021)

System: SARS-CoV-2
Assay: microbe, parasite or virus in culture
Details: Severe acute respiratory syndrome coronavirus 2, Vero C1008, 48 h

| Structure (SMILES) | IC50 | IC50 (read-out: pIC50 (converted)) |
| --- | --- | --- |
| C[n+]1ccccc1C=NO [PRALIDOXIME] | > 20 µM | > 20 µM |
| CCCN[C@H]1CCc2nc(N)sc2C1 [PRAMIPEXOLE] | > 20 µM | > 20 µM |
| CC(C)NC1CCC(c2ccccc2)(c2ccccc2)CC1 [PRAMIVERINE] | > 20 µM | > 20 µM |
| CCCCOc1ccc(OCCCN2CCOCC2)cc1 [PRAMOXINE] | > 20 µM | > 20 µM |
| CC(C(=O)O)c1ccc2c(c1)Cc1cccnc1O2 (centres undefined) [PRANOPROFEN] | > 20 µM | > 20 µM |
| COc1ccc(C(=O)c2c(C)n(CCN3CCOCC3)c3ccccc23)cc1 [PRAVADOLINE] | > 20 µM | > 20 µM |
| CC[C@H](C)C(=O)O[C@H]1C[C@H](O)C=C2C=C[C@H](C)[C@H](CC[C@@H](O)C[C@@H](O)CC(=O)O)[C@H]21 [PRAVASTATIN] | > 20 µM | > 20 µM |
| O=C(C1CCCCC1)N1CC(=O)N2CCc3ccccc3C2C1 (centres undefined) [PRAZIQUANTEL] | > 50.1 µM | > 50.1 µM |
| COc1cc2nc(N3CCN(C(=O)c4ccco4)CC3)nc(N)c2cc1OC [PRAZOSIN] | > 20 µM | > 20 µM |
| CCCN1CCC[C@@H](c2cccc(O)c2)C1 [PRECLAMOL] | > 20 µM | > 20 µM |
| CCOC(=O)O[C@]1(C(=O)COC(=O)CC)CC[C@H]2[C@@H]3CCC4=CC(=O)C=C[C@]4(C)[C@H]3[C@@H](O)C[C@@]21C [PREDNICARBATE] | > 20 µM | > 20 µM |
| C[C@]12C=CC(=O)C=C1CC[C@@H]1[C@@H]2[C@@H](O)C[C@@]2(C)[C@H]1CC[C@]2(O)C(=O)CO [PREDNISOLONE] | > 20 µM | > 20 µM |
| CC(=O)[C@H]1CC[C@H]2[C@@H]3CC=C4C[C@@H](O)CC[C@]4(C)[C@H]3CC[C@]12C [PREGNENOLONE] | > 20 µM | > 20 µM |
| Cc1c2c(cn1C)NC(=O)CN=C2c1ccccc1 [PREMAZEPAM] | > 20 µM | > 20 µM |
| CC(C)NC[C@H](O)COc1ccc(O)cc1 [PRENALTEROL] | > 20 µM | > 20 µM |
| c1ccc(C(Cc2noc(CCN3CCCCC3)n2)c2ccccc2)cc1 [PRENOXDIAZINE] | > 20 µM | > 20 µM |
| Cc1cn2nc([C@@H]3CCCCN3C(=O)c3cc(Cl)ccc3NS(C)(=O)=O)cc2nc1N1CC[C@H](N)C1 [PRESATOVIR] | > 20 µM | > 20 µM |
| CCN1CCC(=C(c2ccccc2)c2ccccc2)C1 [PRIDEFINE] | > 20 µM | > 20 µM |
| OC(CCN1CCCCC1)(c1ccccc1)c1ccccc1 [PRIDINOL] | > 20 µM | > 20 µM |
| CCCN1CCC(c2cccc(S(C)(=O)=O)c2)CC1 [PRIDOPIDINE] | > 20 µM | > 20 µM |
| CC(C)(C)c1cc(C(=O)c2cccs2)cc(C(C)(C)C)c1O [PRIFELONE] | > 20 µM | > 20 µM |

| Structure (SMILES) | IC50 | IC50 (read-out: pIC50 (converted)) |
| --- | --- | --- |
| CCCNC(C)C(=O)Nc1ccccc1C (centres undefined) [PRILOCAINE] | > 20 µM | > 20 µM |
| COc1cc(NC(C)CCCN)c2ncccc2c1 (centres undefined) [PRIMAQUINE] | > 20 µM | > 20 µM |
| Cc1ccccc1OCC(O)CNCCn1cc(C)c(=O)[nH]c1=O (centres undefined) [PRIMIDOLOL] | > 20 µM | > 20 µM |
| CCC1(c2ccccc2)C(=O)NCNC1=O [PRIMIDONE] | > 20 µM | > 20 µM |
| CN1Cc2cc(C3=NNC(=O)CC3)ccc2NC1=O [PRINOXODAN] | > 20 µM | > 20 µM |
| CCCN(CCC)S(=O)(=O)c1ccc(C(=O)O)cc1 [PROBENECID] | > 20 µM | > 20 µM |
| CCCc1c2oc(C(=O)O)cc(=O)c2cc2c(=O)cc(C(=O)O)oc12 [PROBICROMIL] | > 20 µM | > 20 µM |
| CC(C)(Sc1cc(C(C)(C)C)c(O)c(C(C)(C)C)c1)Sc1cc(C(C)(C)C)c(O)c(C(C)(C)C)c1 [PROBUCOL] | > 20 µM | > 20 µM |
| CCN(CC)CCNC(=O)c1ccc(N)cc1 [PROCAINAMIDE] | > 20 µM | > 20 µM |
| CCN(CC)CCOC(=O)c1ccc(N)cc1 [PROCAINE] | > 20 µM | > 20 µM |
| CNNCc1ccc(C(=O)NC(C)C)cc1 [PROCARBAZINE] | > 20 µM | > 20 µM |
| CCC(NC(C)C)C(O)c1ccc(O)c2[nH]c(=O)ccc12 (centres undefined) [PROCATEROL] | > 20 µM | > 20 µM |
| CN1CCN(CCCN2c3ccccc3Sc3ccc(Cl)cc32)CC1 [PROCHLORPERAZINE] | > 20 µM | > 20 µM |
| OC(c1ccc(Cl)cc1)(c1ccc(Cl)cc1)C1CC1 [PROCLONOL] | > 20 µM | > 20 µM |
| O=C(O)CCc1nc2ccccc2[nH]1 [PROCODAZOLE] | > 20 µM | > 20 µM |
| OC(CCN1CCCC1)(c1ccccc1)C1CCCCC1 (centres undefined) [PROCYCLIDINE] | > 20 µM | > 20 µM |
| CCC(=O)OC1(c2ccccc2)CCN(C)C1C (centres undefined) [PRODILIDINE] | > 20 µM | > 20 µM |
| CCCC1(c2cccc(O)c2)CCN(C)C1 (centres undefined) [PROFADOL] | > 20 µM | > 20 µM |
| CC(=O)[C@H]1CC[C@H]2[C@@H]3CCC4=CC(=O)CC[C@]4(C)[C@H]3CC[C@]12C [PROGESTERONE] | > 20 µM | > 20 µM |
| CCCN(CCC)C(=O)C(CCC(=O)O)NC(=O)c1ccccc1 (centres undefined) [PROGLUMIDE] | > 20 µM | > 20 µM |
| CC(C)NC(=N)NC(=N)Nc1ccc(Cl)cc1 [PROGUANIL] | > 20 µM | > 20 µM |

| Structure (SMILES) | IC50 | IC50 (read-out: pIC50 (converted)) |
| --- | --- | --- |
| O=C(O)[C@@H]1CCCN1 [PROLINE] | > 20 µM | > 20 µM |
| CC(C)NCC(O)c1ccc2ccccc2c1 (centres undefined) [PRONETALOL] | > 20 µM | > 20 µM |
| CCCNCC(O)COc1ccccc1C(=O)CCc1ccccc1 (centres undefined) [PROPAFENONE] | > 20 µM | > 20 µM |
| CCCOC(=O)Cc1ccc(OCC(=O)N(CC)CC)c(OC)c1 [PROPANIDID] | > 20 µM | > 20 µM |
| CC(C)[N+](C)(CCOC(=O)C1c2ccccc2Oc2ccccc21)C(C)C [PROPANTHELINE] | > 20 µM | > 20 µM |
| CCCOc1ccc(C(=O)OCCN(CC)CC)cc1N [PROPARACAINE] | > 20 µM | > 20 µM |
| CCCn1cnc2c1c(=O)n(CCCCC(C)=O)c(=O)n2C [PROPENTOFYLLINE] | > 20 µM | > 20 µM |
| CC(C)OC(=O)C1(c2ccccc2)CCN(C)CC1 [PROPERIDINE] | > 20 µM | > 20 µM |
| CCC(=O)O [PROPIONIC ACID] | > 20 µM | > 20 µM |
| CC(C)c1cccc(C(C)C)c1O [PROPOFOL] | > 20 µM | > 20 µM |
| CCCOc1cc(N)ccc1C(=O)OCCN(CC)CC [PROPOXYCAINE] | > 20 µM | > 20 µM |
| CCC(=O)O[C@](Cc1ccccc1)(c1ccccc1)[C@H](C)CN(C)C [PROPOXYPHENE] | > 20 µM | > 20 µM |
| CC(O)CO (centres undefined) [PROPYLENE GLYCOL] | > 20 µM | > 20 µM |
| CCCOC(=O)c1ccc(O)cc1 [PROPYLPARABEN] | > 20 µM | > 20 µM |
| Cc1c(C(C)C)c(=O)n(-c2ccccc2)n1C [PROPYPHENAZONE] | > 20 µM | > 20 µM |
| Cc1ccc2c(-c3ccccc3)nc(=O)n(C(C)C)c2c1 [PROQUAZONE] | > 20 µM | > 20 µM |
| CCCc1cc(C(N)=S)ccn1 [PROTIONAMIDE] | > 20 µM | > 20 µM |
| COc1ccc2c(c1)Sc1ccc(C(C)C(=O)O)cc1N2C (centres undefined) [PROTIZINIC ACID] | > 20 µM | > 20 µM |
| CC(O)Cn1cnc2c1c(=O)n(C)c(=O)n2C (centres undefined) [PROXYPHYLLINE] | > 20 µM | > 20 µM |
| c1ccc(C(CCN2CCCCCC2)c2ccccc2)cc1 [PROZAPINE] | > 20 µM | > 20 µM |
| Cc1oc(=O)oc1CN1CCN(c2cc3c(cc2F)c(=O)c(C(=O)O)c2n3C(C)S2)CC1 (centres undefined) [PRULIFLOXACIN] | > 20 µM | > 20 µM |

| Structure (SMILES) | IC50 | IC50 (read-out: pIC50 (converted)) |
| --- | --- | --- |
| N#Cc1cc(CN2CCC(Nc3ncnc4sc(Cl)cc34)CC2)ccc1F [PRX-08066 FREE BASE] | > 20 µM | > 20 µM |
| CN[C@@H](C)[C@@H](O)c1ccccc1 [PSEUDOEPHEDRINE] | > 20 µM | > 20 µM |
| COc1cc(/C=C/c2ccc(O)cc2)cc(OC)c1 [PTEROSTILBENE] | > 20 µM | > 20 µM |
| C/C=C(\C)C(=O)O[C@@H]1c2c(ccc3ccc(=O)oc23)OC(C)(C)[C@@H]1OC(C)=O [PTERYXIN] | > 20 µM | > 20 µM |
| COC(=O)Nc1cccc(C)c1CNc1cccn2c(C)c(C)nc12 [PUMAPRAZOLE] | > 20 µM | > 20 µM |
| O=C(N[C@H]1CN2CCC1CC2)c1c[nH]c2ccsc2c1=O [PUMOSETRAG] | > 20 µM | > 20 µM |
| NCCCCN [PUTRESCINE] | > 20 µM | > 20 µM |
| CCC(C)SSc1ncc[nH]1 (centres undefined) [PX-12] | > 20 µM | > 20 µM |
| c1ccc2c(c1)Sc1ccccc1N2CCN1CCCC1 [PYRATHIAZINE] | > 20 µM | > 20 µM |
| NC(=O)c1cnccn1 [PYRAZINAMIDE] | > 20 µM | > 20 µM |
| NC(=O)c1[nH]nc([C@@H]2O[C@H](CO)[C@@H](O)[C@H]2O)c1O [PYRAZOFURIN] | > 20 µM | > 20 µM |
| CC(C)(C)c1ccc(CSc2cnn(C(C)(C)C)c(=O)c2Cl)cc1 [PYRIDABEN] | > 20 µM | > 20 µM |
| CN(C)C(=O)Oc1ccc[n+](C)c1 [PYRIDOSTIGMINE] | > 20 µM | > 20 µM |
| Cc1ncc(COP(=O)(O)O)c(C=O)c1O [PYRIDOXAL PHOSPHATE ANHYDROUS] | > 20 µM | > 20 µM |
| Cc1ncc(CO)c(C=O)c1O [PYRIDOXAL] | > 20 µM | > 20 µM |
| Cc1ncc(CO)c(CN)c1O [PYRIDOXAMINE] | > 20 µM | > 20 µM |
| Cc1ncc(CO)c(CO)c1O [PYRIDOXINE] | > 20 µM | > 20 µM |
| COc1ccc(CN(CCN(C)C)c2ccccn2)cc1 [PYRILAMINE] | > 20 µM | > 20 µM |
| CCc1nc(N)nc(N)c1-c1ccc(Cl)cc1 [PYRIMETHAMINE] | > 20 µM | > 20 µM |
